Reference: the supplement of paper PMC10307832

How the values were obtained:
[1] = compound: COC1=CC=C(C=C1)COC2=C(C=C(C=C2)CC3=CN=C(N=C3N)N)OC [GW-2580]; test: relative viability (nuclei count vs DMSO), 5 days (fraction); higher = more cells survive
Procedure, shortened: (§1)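 Acceptance criteria were a control CV below 25% and at least one doubling per plate. Lung cancer cell lines in 1536-well plates got five library-drug doses (not always all listed) √10 apart by pinning and were left 5 days with no medium change. Viability divides treated-well nuclei by vehicle-well nuclei and is the median across plates. Nuclei were counted by MetaXpress from 4× Hoechst images.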

[2] = compound: Cc1cnc(Nc2ccc(OCCN3CCCC3)cc2)nc1Nc1cccc(S(=O)(=O)NC(C)(C)C)c1 [Fedratinib]; test: as above
Procedure, shortened: as §1

UMC-11
relative viability ([1]; 0.08 µM): 1.05 | relative viability ([1]; 0.8 µM): 1.11 | relative viability ([1]; 2.53 µM): 0.923 | relative viability ([1]; 8 µM): 1.2 | relative viability ([2]; 0.1 µM): 0.914 | relative viability ([2]; 0.3162 µM): 0.894 | relative viability ([2]; 1 µM): 0.67
